Experimental data: ChEMBL document CHEMBL1201862, “PubChem BioAssay data set” (2004)
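Briefly, cells in 96-well plates were exposed to five compound concentrations for 48 h, and endpoints were estimated by linear interpolation. GI50: concentration for 50% inhibition of growth.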 Calls of active or inactive are those of the source. No stated cut-off is given here; in the data, active = GI50 up to about 1.1 µM and inactive = higher.

Columns and labels:
Assay in all cases: inhibition of tumour cell growth, NCI panel, 48 h
HL-60 = test system: HL-60
SN12C = test system: SN12C
NCI-H226 = test system: NCI-H226
SK-OV-3 = test system: SK-OV-3
HCC 2998 = test system: HCC 2998
SR = test system: SR
SK-MEL-5 = test system: SK-MEL-5
HOP-92 = test system: HOP-92
NCI-H460 = test system: NCI-H460
Malme-3M = test system: Malme-3M
A498 = test system: A498
SNB-19 = test system: SNB-19
ACHN = test system: ACHN
U-251 = test system: U-251
SF-295 = test system: SF-295
OVCAR-5 = test system: OVCAR-5
NCI-H23 = test system: NCI-H23
NCI-H522 = test system: NCI-H522
HCT-15 = test system: HCT-15
CCRF-CEM = test system: CCRF-CEM

| SMILES | GI50 (HL-60) | GI50 (SN12C) | GI50 (NCI-H226) | GI50 (SK-OV-3) | GI50 (HCC 2998) | GI50 (SR) | GI50 (SK-MEL-5) | GI50 (HOP-92) | GI50 (NCI-H460) | GI50 (Malme-3M) | GI50 (A498) | GI50 (SNB-19) | GI50 (ACHN) | GI50 (U-251) | GI50 (SF-295) | GI50 (OVCAR-5) | GI50 (NCI-H23) | GI50 (NCI-H522) | GI50 (HCT-15) [µM] | GI50 (CCRF-CEM) |
| --- | --- | --- | --- | --- | --- | --- | --- | --- | --- | --- | --- | --- | --- | --- | --- | --- | --- | --- | --- | --- |
| O=C1C(SCCO)=C(SCCO)C(=O)c2ccccc21 | 1.17 µM (inactive) | 1.6 µM (inactive) | 1.71 µM (inactive) | 1.66 µM (inactive) | 1.74 µM (inactive) | 1.51 µM (inactive) | 0.238 µM (active) | 0.805 µM (active) | 1.77 µM (inactive) | 1.1 µM (active) | 0.59 µM (active) | 1.78 µM (inactive) | 0.807 µM (active) | 0.711 µM (active) | 1.48 µM (inactive) | 1.16 µM (inactive) | 0.518 µM (active) | 1.86 µM (inactive) | 1.39 | 0.916 µM (active) |
| COc1cccc(C2c3cc4c(cc3OC(C)(N3CCCC3)C2C)OCO4)c1 (stereo not given) | 23.1 µM (inactive) | 17.2 µM (inactive) | 6.4 µM (inactive) | 11.9 µM (inactive) | 13.1 µM (inactive) | 9.48 µM (inactive) | 3.92 µM (inactive) | 10.2 µM (inactive) | 9.62 µM (inactive) | 11.6 µM (inactive) | 14 µM (inactive) | 21.9 µM (inactive) | 17.6 µM (inactive) | 7.59 µM (inactive) | 8.83 µM (inactive) | 7.73 µM (inactive) | 20.5 µM (inactive) | 2.37 µM (inactive) | 5.35 | 32.7 µM (inactive) |
| CC1Cc2cc(O)ccc2C2[C@@H]1C1CC[C@H](O)[C@@]1(C)C[C@@H]2O[N+](=O)[O-] (stereo not given in full) | 2.79 µM (inactive) | 14.7 µM (inactive) | 32.1 µM (inactive) | 19.6 µM (inactive) | 5.48 µM (inactive) | 5.56 µM (inactive) | 4.93 µM (inactive) | 13.1 µM (inactive) | 9.35 µM (inactive) | 10.7 µM (inactive) | 31.8 µM (inactive) | 9.68 µM (inactive) | 14.7 µM (inactive) | 3.99 µM (inactive) | 7.29 µM (inactive) | 33.4 µM (inactive) | 12 µM (inactive) | 5.62 µM (inactive) | 5.18 | 5.83 µM (inactive) |
| O=C(c1c(F)c(F)c(F)c(F)c1F)N1CCN(C(=O)c2c(F)c(F)c(F)c(F)c2F)C1=S | 1.07 µM (active) | 8.11 µM (inactive) | 15.4 µM (inactive) | 5.05 µM (inactive) | 9.57 µM (inactive) | 3.38 µM (inactive) | 6.9 µM (inactive) | 3.89 µM (inactive) | 10.7 µM (inactive) | 4.58 µM (inactive) | 18.1 µM (inactive) | 16.4 µM (inactive) | 7.69 µM (inactive) | 6.49 µM (inactive) | 15.1 µM (inactive) | 15.6 µM (inactive) | 6.81 µM (inactive) | 0.582 µM (active) | 2.2 | 2.79 µM (inactive) |
| COc1ccccc1NC(=O)CC(=O)NN | > 100 µM (inactive) | > 100 µM (inactive) | > 100 µM (inactive) | > 100 µM (inactive) | 11.9 µM (inactive) | > 100 µM (inactive) | > 100 µM (inactive) | > 100 µM (inactive) | > 100 µM (inactive) | > 100 µM (inactive) | > 100 µM (inactive) | > 100 µM (inactive) | > 100 µM (inactive) | > 100 µM (inactive) | > 100 µM (inactive) | > 100 µM (inactive) | > 100 µM (inactive) | > 100 µM (inactive) | > 100 | > 100 µM (inactive) |
| CC(C)NC(NC(C)C)=C(S(=O)(=O)C(F)(F)C(F)(F)C(F)(F)C(F)(F)F)S(=O)(=O)C(F)(F)C(F)(F)C(F)(F)C(F)(F)F | > 100 µM (inactive) | > 100 µM (inactive) | > 100 µM (inactive) | > 100 µM (inactive) | > 100 µM (inactive) | > 100 µM (inactive) | > 100 µM (inactive) | > 100 µM (inactive) | > 100 µM (inactive) | > 100 µM (inactive) | > 100 µM (inactive) | > 100 µM (inactive) | > 100 µM (inactive) | > 100 µM (inactive) | > 100 µM (inactive) | > 100 µM (inactive) | > 100 µM (inactive) | > 100 µM (inactive) | > 100 | > 100 µM (inactive) |
| Cn1c(=O)c2c(nc3n(C)c(=O)c4ccccc4n23)n(C)c1=O | 24 µM (inactive) | 29.2 µM (inactive) | 30 µM (inactive) | 37.8 µM (inactive) | > 100 µM (inactive) | 3.67 µM (inactive) | 27.8 µM (inactive) | 43.6 µM (inactive) | 6.93 µM (inactive) | > 49.3 µM (inactive) | 18.9 µM (inactive) | 25.8 µM (inactive) | 17.1 µM (inactive) | 34 µM (inactive) | 22.4 µM (inactive) | > 100 µM (inactive) | 40.4 µM (inactive) | 25.1 µM (inactive) | 35.1 | 13.5 µM (inactive) |
| NC1CCC(N(CC(=O)O)CC(=O)O)C(N(CC(=O)O)CC(=O)O)C1 (stereo not given) | > 100 µM (inactive) | > 100 µM (inactive) | > 100 µM (inactive) | > 100 µM (inactive) | > 100 µM (inactive) | > 100 µM (inactive) | > 100 µM (inactive) | > 100 µM (inactive) | > 100 µM (inactive) | > 100 µM (inactive) | > 100 µM (inactive) | > 100 µM (inactive) | > 100 µM (inactive) | > 100 µM (inactive) | > 100 µM (inactive) | > 100 µM (inactive) | > 100 µM (inactive) | > 100 µM (inactive) | > 100 | > 100 µM (inactive) |
| CCC1(CC)N=C(C(F)(F)F)c2cc(C(=O)C(F)(F)F)c3ccccc3c2N1 | 2.95 µM (inactive) | 3.41 µM (inactive) | 6.5 µM (inactive) | 17.7 µM (inactive) | 4.39 µM (inactive) | 2.98 µM (inactive) | 1.77 µM (inactive) | 2.67 µM (inactive) | 4.16 µM (inactive) | 11.4 µM (inactive) | 15.6 µM (inactive) | 5.15 µM (inactive) | 4.3 µM (inactive) | 3.64 µM (inactive) | 3.14 µM (inactive) | 13.4 µM (inactive) | 3.24 µM (inactive) | 3.94 µM (inactive) | 4.22 | 3.67 µM (inactive) |
| COc1ccc(C(=O)c2cc(OC)c(OC)c(OC)c2)cc1 | 0.031 µM (active) | 0.705 µM (active) | 1.11 µM (active) | 1.14 µM (inactive) | 0.321 µM (active) | 0.0581 µM (active) | 0.0702 µM (active) | 2.41 µM (inactive) | 0.0735 µM (active) | 0.0586 µM (active) | 0.0713 µM (active) | 0.199 µM (active) | 1.29 µM (inactive) | 0.206 µM (active) | 0.0399 µM (active) | 5.98 µM (inactive) | 0.324 µM (active) | 0.0715 µM (active) | 0.0566 | 0.0879 µM (active) |
| COc1cc(C2=N/C(=C/c3cccs3)C(=O)O2)cc(OC)c1OC | > 100 µM (inactive) | > 100 µM (inactive) | > 100 µM (inactive) | > 100 µM (inactive) | > 100 µM (inactive) | > 100 µM (inactive) | > 100 µM (inactive) | > 100 µM (inactive) | > 100 µM (inactive) | > 100 µM (inactive) | > 100 µM (inactive) | > 100 µM (inactive) | > 100 µM (inactive) | > 100 µM (inactive) | > 100 µM (inactive) | > 100 µM (inactive) | > 100 µM (inactive) | > 100 µM (inactive) | > 100 | > 100 µM (inactive) |
